Test results published in PMC5042876 (Journal of the American Chemical Society, 2016).
Residue numbers refer to the chain shown, from its start.

Key:
PntM F232A [1] = target: T1, PntM F232A (Streptomyces arenae, UniProt E3VWI3, F232A); experiment: Substrate binding assay
T1 sequence (E3VWI3 1-398 F232A): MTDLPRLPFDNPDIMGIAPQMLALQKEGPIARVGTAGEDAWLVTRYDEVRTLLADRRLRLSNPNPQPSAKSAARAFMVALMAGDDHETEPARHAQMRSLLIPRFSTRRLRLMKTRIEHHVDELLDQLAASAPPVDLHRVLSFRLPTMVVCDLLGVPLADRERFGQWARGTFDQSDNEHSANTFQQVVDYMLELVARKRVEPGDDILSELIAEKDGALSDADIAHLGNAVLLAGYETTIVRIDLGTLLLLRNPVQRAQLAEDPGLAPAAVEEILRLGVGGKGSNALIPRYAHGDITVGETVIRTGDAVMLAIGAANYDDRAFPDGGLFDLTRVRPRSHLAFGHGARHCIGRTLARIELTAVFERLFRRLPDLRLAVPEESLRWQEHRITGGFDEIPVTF

PntM-F232G = target: T2, PntM-F232G (Streptomyces arenae, UniProt E3VWI3, F232G); experiment: Substrate binding assay
T2 sequence (E3VWI3 1-398 F232G): T1 sequence (E3VWI3 1-398 F232A) with A232G

PntM F232L [2] = target: T3, PntM F232L (Streptomyces arenae, UniProt E3VWI3, F232L); experiment: Substrate binding assay
T3 sequence (E3VWI3 1-398 F232L): T1 sequence (E3VWI3 1-398 F232A) with A232L

PntM M81A [3] = target: T4, PntM M81A (Streptomyces arenae, UniProt E3VWI3, M81A); experiment: Substrate binding assay
T4 sequence (E3VWI3 1-398 M81A): T1 sequence (E3VWI3 1-398 F232A) with M81A, A232F

PntM M81C [4] = target: T5, PntM M81C (Streptomyces arenae, UniProt E3VWI3, M81C); experiment: Substrate binding assay
T5 sequence (E3VWI3 1-398 M81C): T1 sequence (E3VWI3 1-398 F232A) with M81C, A232F

PntM M77S [5] = target: T6, PntM M77S (Streptomyces arenae, UniProt E3VWI3, M77S); experiment: Substrate binding assay
T6 sequence (E3VWI3 1-398 M77S): T1 sequence (E3VWI3 1-398 F232A) with M77S, A232F

PntM M81C-BME [6] = target: T7, PntM M81C-BME (Streptomyces arenae, UniProt E3VWI3, M81C); experiment: Substrate binding assay
T7 sequence (E3VWI3 1-398 M81C): T1 sequence (E3VWI3 1-398 F232A) with M81C, A232F

PntM F232Y = target: T8, PntM F232Y (Streptomyces arenae, UniProt E3VWI3, F232Y); experiment: Substrate binding assay, PntM F232Y; conditions: PntM F232Y mutant
T8 sequence (E3VWI3 1-398 F232Y): T1 sequence (E3VWI3 1-398 F232A) with A232Y

PntM F232H = target: T9, PntM F232H (Streptomyces arenae, UniProt E3VWI3, F232H); experiment: Substrate binding assay, PntM F232H; conditions: PntM F232H mutant
T9 sequence (E3VWI3 1-398 F232H): T1 sequence (E3VWI3 1-398 F232A) with A232H

PntM F232A [7] = target: T1, PntM F232A; experiment: Steady-state kinetics and product profile, PntM F232A; assay type: biochemical; conditions: F232A mutant
PntM F232L [8] = target: T3, PntM F232L; experiment: Steady-state kinetics and product profile, PntM F232L; assay type: biochemical; conditions: F232L mutant
PntM M81A [9] = target: T4, PntM M81A; experiment: Steady-state kinetics and product profile, PntM M81A; assay type: biochemical; conditions: M81A mutant
PntM M81C [10] = target: T5, PntM M81C; experiment: Steady-state kinetics and product profile, PntM M81C; assay type: biochemical; conditions: M81C mutant
PntM M77S [11] = target: T6, PntM M77S; experiment: Steady-state kinetics and product profile, PntM M77S; assay type: biochemical; conditions: M77S mutant
PntM M81C-BME [12] = target: T7, PntM M81C-BME; experiment: Steady-state kinetics and product profile, PntM M81C-BME; assay type: biochemical; conditions: M81C-BME mutant
[13] = target: wild-type PntM (CYP161C2) (Streptomyces arenae, UniProt E3VWI3); experiment: Substrate binding assay
Sequence of wild-type PntM (CYP161C2) (E3VWI3 whole entry): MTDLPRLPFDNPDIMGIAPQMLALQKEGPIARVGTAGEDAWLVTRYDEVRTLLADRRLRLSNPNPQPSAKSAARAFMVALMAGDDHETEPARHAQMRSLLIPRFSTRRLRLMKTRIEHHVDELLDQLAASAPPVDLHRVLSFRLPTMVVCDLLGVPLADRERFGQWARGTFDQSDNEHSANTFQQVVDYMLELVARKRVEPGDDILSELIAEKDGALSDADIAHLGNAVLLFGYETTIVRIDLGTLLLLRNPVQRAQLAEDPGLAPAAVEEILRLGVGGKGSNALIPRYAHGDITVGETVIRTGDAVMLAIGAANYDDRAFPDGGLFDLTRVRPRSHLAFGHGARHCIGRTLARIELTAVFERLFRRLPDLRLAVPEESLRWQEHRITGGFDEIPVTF

[14] = comparator not stated, figures fit comparison with M81C

Question: Which Kd (PntM F232A [1]) does the source give for `CC1(C)C[C@H]2C=C(C(=O)O)[C@@H]3COC(=O)[C@]4(CO4)[C@]23C1` [compound 2, pentalenolactone F] here?
Answer: 270 ± 85 µM

Question: What about the Kd (PntM-F232G) of the same molecule?
Answer: 225 ± 45 µM

Question: What about the Kd (PntM F232L [2]) of the same molecule?
Answer: 160 ± 12 µM

Question: And the Kd (PntM M81A [3])?
Answer: 340 ± 90 µM

Question: And the “KD greater than that of wild-type PntM” value (PntM M81C [4])?
Answer: 4-6 fold

Question: And the Kd (PntM M81C [4])?
Answer: 43 ± 3 µM

Question: What about the Kd (PntM M77S [5]) of the same molecule?
Answer: 115 ± 8 µM

Question: What about the “KD greater than that of wild-type PntM” value (PntM M81C-BME [6]) of the same molecule?
Answer: 4-6 fold

Question: And the Kd (PntM M81C-BME [6])?
Answer: 31 ± 1 µM

Question: And the binding of substrate (PntM F232Y)?
Answer: did not bind

Question: And the binding of substrate (PntM F232H)?
Answer: did not bind

Question: What about the “lower kcat/Km than wild type PntM” value (PntM F232A [7]) of the same molecule?
Answer: > 60 fold

Question: What about the “product profile (GC-MS)” value (PntM F232A [7]) of the same molecule?
Answer: exclusively pentalenolactone

Question: What about the “decrease in kcat compared to wild type PntM” value (PntM F232L [8]) of the same molecule?
Answer: 20 fold

Question: And the “reduction in Km compared to wild type PntM” value (PntM F232L [8])?
Answer: 3 fold

Question: And the “reduction in kcat/Km compared to wild type PntM” value (PntM F232L [8])?
Answer: 7 fold

Question: What about the “product profile (GC-MS of total product mixture)” value (PntM F232L [8]; no detectable hydroxylation products) of the same molecule?
Answer: only the natural oxidative rearrangement product, pentalenolactone (1)

Question: What about the “product profile (GC-MS)” value (PntM M81A [9]) of the same molecule?
Answer: no change in product profile

Question: What about the less active (PntM M81A [9]; [14]) of the same molecule?
Answer: 5-15 fold

Question: And the “product profile (GC-MS)” value (PntM M81C [10])?
Answer: exclusive formation of the oxidative rearrangement product 1

Question: What about the “reduction in kcat/Km compared to wild-type” value (PntM M81C [10]) of the same molecule?
Answer: 10 fold

Question: And the “product profile (GC-MS)” value (PntM M77S [11])?
Answer: no change in product profile

Question: And the less active (PntM M77S [11]; [14])?
Answer: 5-15 fold

Question: What about the “product profile (GC-MS)” value (PntM M81C-BME [12]) of the same molecule?
Answer: no change in product profile

Question: And the Kd [13]?
Answer: 7.2 ± 0.8 µM

Question: `CC1(C)C[C@H]2C[C@@H](C(=O)O)[C@@H]3COC(=O)[C@]4(CO4)[C@]23C1` [compound 7, 6,7-dihydropentalenolactone F] was tested. Which Kd [13] did it give?
Answer: 170 ± 17 µM

Question: And the “binding weaker than natural substrate 2” value [13]?
Answer: ~25 times

Question: And the P450 binding spectrum ([13]; wild-type PntM, UV shift from 420 nm to 390 nm)?
Answer: normal Type I P450 binding spectrum
